According to PMC6308302, “Identification of Pharmacokinetic Markers for Guanxin Danshen Drop Pills in Rats by Combination of Pharmacokinetics, Systems Pharmacology, and Pharmacodynamic Assays” (Frontiers in Pharmacology, 2018):
Entries after “also recorded” stand apart in the source; their conditions may differ. Marks after values point to notes of the source that are not given here.

Legend:
[1] = test system: isoprenaline-induced MI in mice; experiment: In vivo anti-MI study: isoprenaline-induced myocardial injury (ECG, H&E histology)
[2] = Multiple component PK study in rat plasma after p.o. GDDP (HPLC-MS); settings: for AUC(0-inf) / AUC(0-t) / MRT inf / MRT last / Tmax / Cmax / half-life: Sprague-Dawley, rat, plasma, po
[3] = Stability tests in rat plasma (QC samples, HPLC-MS); settings: n=5
Text: Accuracy and precision were expressed by relative error (RE) and coefficient of variance (RSD), respectively.

[4] = test system: Caco-2 cell monolayers; settings: ref Lu et al., 2008, Liu et al., 2009, Hu et al., 2014, Bowles et al., 2017, cited from earlier work
[5] = Aqueous solubility test (vortexing in water); format: physicochemical; settings: water at 25 °C
[6] = 24h in auto-sampler vials, spiked 2 ng/mL
[7] = 24h in auto-sampler vials, spiked 400 ng/mL
[8] = 24h in auto-sampler vials, spiked 1600 ng/mL
[9] = Placing plasma for 6h at 4°C, spiked 2 ng/mL
[10] = Placing plasma for 6h at 4°C, spiked 400 ng/mL
[11] = Placing plasma for 6h at 4°C, spiked 1600 ng/mL
[12] = three freeze-thaw cycles, rat plasma, spiked 2 ng/mL
[13] = three freeze-thaw cycles, rat plasma, spiked 400 ng/mL
[14] = three freeze-thaw cycles, rat plasma, spiked 1600 ng/mL
[15] = Caco-2 cell monolayers, from literature

## Cc1coc2c1C(=O)C(=O)c1c-2ccc2c(C)cccc12 [TS I, tanshinone I]
[1]; 40 mg/kg p.o. for 7 days, isoprenaline-induced MI, 40 mg/kg
  Histopathology of heart tissue (H&E): myocardial lysis, architecture disorder, and loss of striations in heart tissue; also recorded: myocardial lysis, and architecture disorder, and loss of striations in heart tissue
[1]; 40 mg/kg p.o., isoprenaline 5 mg/kg on days 4 and 5
  ECG (lead II) findings on the fifth day of the trial: T waves reversed or decreased
[2]; GDDP 0.8 g/kg p.o., 5, 10, 15, 30, 45, 60, and 120 min, LOQ 1.0–1.4 ng/mL
  determination in rat plasma at the planned successive PK time points: could be determined
[2]; GDDP 0.8 g/kg p.o., at 5, 10, 15, 30, 45, or 60 min, LOD 0.5–0.7 ng/mL
  detection in rat plasma: could be detected
[2]; 0.4 g/kg
  AUC(0-inf): 125 ± 115 ng·h/mL
  AUC(0-t): 63 ± 49.5 ng·h/mL
  MRT inf: 27.3 ± 10.6 h
  MRT last: 9.93 ± 0.87 h
  Tmax: 1.25 ± 1.06 h
[2]; 0.4 g/kg, Cmax, rat plasma, GDDP 0.4 g/kg p.o. (Low dose group), n=3
  Cmax: 6.1 ± 3.08 ng/mL
[2]; 0.4 g/kg, t1/2 β, rat plasma, GDDP 0.4 g/kg p.o. (Low dose group), n=3
  half-life: 16.4 ± 8.87 h
[2]; 0.8 g/kg
  AUC(0-inf): 45.1 ± 20.6 ng·h/mL
  AUC(0-t): 40.1 ± 17.3 ng·h/mL
  MRT inf: 7.72 ± 2.17 h
  MRT last: 4.27 ± 1.62 h
  Tmax: 1.25 ± 0.66 h
[2]; 0.8 g/kg, Cmax (high / low plasma drug concentrations), rats, GDDP 0.4 and 0.8 g/kg p.o., classification
  Cmax: < 10 ng/mL
[2]; 0.8 g/kg, Cmax, rat plasma, GDDP 0.8 g/kg p.o. (High dose group), n=3
  Cmax: 8.59 ± 3.18 ng/mL
[2]; 0.8 g/kg, t1/2 β (fast / slow elimination type), rats, GDDP 0.4 and 0.8 g/kg p.o., classification
  half-life: > 2.6 h
[2]; 0.8 g/kg, t1/2 β, rat plasma, GDDP 0.8 g/kg p.o. (High dose group), n=3
  half-life: 11.7 ± 4.78 h
[2]; rat plasma, GDDP 0.4 g/kg p.o. (Low dose group), n=3
  Cltot: 45.3 ± 41.8 mL/min/kg
[2]; rat plasma, GDDP 0.8 g/kg p.o. (High dose group), n=3
  Cltot: 163 ± 59.8 mL/min/kg
[3]; [6]
  Stability: Measured: 2.02 ± 0.32 ng/mL
  Stability: RE: 0.78%
[3]; [7]
  Stability: Measured: 470.56 ± 54.19 ng/mL
  Stability: RE: 17.64%
[3]; [8]
  Stability: Measured: 1562.58 ± 145.90 ng/mL
  Stability: RE: -2.34%
[3]; [9]
  Stability: Measured: 2.22 ± 0.30 ng/mL
  Stability: RE: 10.90%
[3]; [10]
  Stability: Measured: 469.39 ± 24.45 ng/mL
  Stability: RE: 17.35%
[3]; [11]
  Stability: Measured: 1771.82 ± 333.46 ng/mL
  Stability: RE: 10.74%
[3]; [12]
  Stability: Measured: 2.09 ± 0.20 ng/mL
  Stability: RE: 4.39%
[3]; [13]
  Stability: Measured: 459.00 ± 25.68 ng/mL
  Stability: RE: 14.75%
[3]; [14]
  Stability: Measured: 1482.38 ± 283.06 ng/mL
  Stability: RE: -7.32%
[4]; [15]
  Papp(apical→basolateral): 0.95^d ×10^-6 cm/s
  Papp(basolateral→apical): 11.27^d ×10^-6 cm/s
[4]; previous results
  apparent permeability in Caco-2 cell monolayers: ≥ 10^-6 cm/s
[5]
  solubility in water (in words): insoluble
